Reference: PMC4411097, “Pachymic Acid Inhibits Growth and Induces Apoptosis of Pancreatic Cancer In Vitro and In Vivo by Targeting ER Stress” (PLoS ONE, 2015)

System: MIA PaCa-2 cells
Assay: DNA microarray analysis (Affymetrix Human PrimeView)
Assay type: cell-based
[1] = gene SRP19, probeset 11758864_at
[2] = gene STC1, probeset 11750279_a_at
[3] = gene TMEM201, probeset 11726819_at
[4] = gene TNFAIP2, probeset 11717823_s_at
[5] = gene TNFRSF12A, probeset 11745020_a_at
[6] = gene TNFSF18, probeset 11737853_at
[7] = gene TRAF1, probeset 11721588_at
[8] = gene TXNRD1, probeset 11750416_a_at
[9] = gene symbol ---, probeset AFFX-M27830_M_at

SMILES: C=C(CC[C@@H](C(=O)O)[C@H]1[C@H](O)C[C@@]2(C)C3=C(CC[C@]12C)[C@@]1(C)CC[C@H](OC(C)=O)C(C)(C)[C@@H]1CC3)C(C)C [PA, Pachymic acid]
- Mean (MiaPaca-2 * PA) (gene SPRY4, probeset 11736669_s_at, MiaPaca-2, PA-treated): 6.19
- Fold-Change (MiaPaca-2 * PA vs. MiaPaca-2 * control) [1]: 1.58
- Mean (MiaPaca-2 * PA) [1]: 8.71
- Fold-Change (MiaPaca-2 * PA vs. MiaPaca-2 * control) [2]: 1.56
- Mean (MiaPaca-2 * PA) [2]: 5.97
- Mean (MiaPaca-2 * PA) (gene STX1A, probeset 11720340_a_at): 6.73
- Fold-Change (MiaPaca-2 * PA vs. MiaPaca-2 * control) [3]: 1.56
- Mean (MiaPaca-2 * PA) [3]: 6.77
- Fold-Change (MiaPaca-2 * PA vs. MiaPaca-2 * control) (gene TNF, probeset 11721577_at): 1.57
- Mean (MiaPaca-2 * PA) (gene TNF, probeset 11721577_at): 5.89
- Fold-Change (MiaPaca-2 * PA vs. MiaPaca-2 * control) [4]: 1.60
- Mean (MiaPaca-2 * PA) [4]: 8.52
- Fold-Change (MiaPaca-2 * PA vs. MiaPaca-2 * control) [5]: 1.59
- Mean (MiaPaca-2 * PA) [5]: 9.93
- Fold-Change (MiaPaca-2 * PA vs. MiaPaca-2 * control) [6]: 1.61
- Mean (MiaPaca-2 * PA) [6]: 7.58
- Fold-Change (MiaPaca-2 * PA vs. MiaPaca-2 * control) (gene TRA2B, probeset 11734663_at, MiaPaca-2): 1.51
- Mean (MiaPaca-2 * PA) (gene TRA2B, probeset 11734663_at, MiaPaca-2, PA-treated): 5.21
- Fold-Change (MiaPaca-2 * PA vs. MiaPaca-2 * control) [7]: 1.57
- Mean (MiaPaca-2 * PA) [7]: 5.45
- Fold-Change (MiaPaca-2 * PA vs. MiaPaca-2 * control) [8]: 1.56
- Mean (MiaPaca-2 * PA) [8]: 9.74
- Fold-Change (MiaPaca-2 * PA vs. MiaPaca-2 * control) [9]: 1.54
- Mean (MiaPaca-2 * PA) [9]: 11.57
- Fold-Change (MiaPaca-2 * PA vs. MiaPaca-2 * control), CDKN1A (probeset 11715388_s_at): 1.87
- Mean (MiaPaca-2 * PA), CDKN1A (probeset 11715388_s_at): 8.59
- Fold-Change (MiaPaca-2 * PA vs. MiaPaca-2 * control), CTGF (probeset 11715441_a_at): 2.27
- Mean (MiaPaca-2 * PA), CTGF (probeset 11715441_a_at): 6.57
- Fold-Change (MiaPaca-2 * PA vs. MiaPaca-2 * control), CTGF (probeset 11715442_s_at): 2.36
- Mean (MiaPaca-2 * PA), CTGF (probeset 11715442_s_at): 7.76
- Fold-Change (MiaPaca-2 * PA vs. MiaPaca-2 * control), CYR61 (probeset 11715493_a_at): 2.12
- Mean (MiaPaca-2 * PA), CYR61 (probeset 11715493_a_at): 10.88
- Fold-Change (MiaPaca-2 * PA vs. MiaPaca-2 * control), SERPINE1 (probeset 11715636_a_at): 1.72
- Mean (MiaPaca-2 * PA), SERPINE1 (probeset 11715636_a_at): 9.63
- Fold-Change (MiaPaca-2 * PA vs. MiaPaca-2 * control), DUSP1 (probeset 11715766_a_at): 1.72
- Mean (MiaPaca-2 * PA), DUSP1 (probeset 11715766_a_at): 8.75
- Fold-Change (MiaPaca-2 * PA vs. MiaPaca-2 * control), HMOX1 (probeset 11716939_a_at): 1.83
- Mean (MiaPaca-2 * PA), HMOX1 (probeset 11716939_a_at): 7.80
- Fold-Change (MiaPaca-2 * PA vs. MiaPaca-2 * control), GADD45A (probeset 11717039_a_at): 1.88
- Mean (MiaPaca-2 * PA), GADD45A (probeset 11717039_a_at): 11.35
- Fold-Change (MiaPaca-2 * PA vs. MiaPaca-2 * control), EGR1 (probeset 11717860_a_at): 1.78
- Mean (MiaPaca-2 * PA), EGR1 (probeset 11717860_a_at): 10.72
- Fold-Change (MiaPaca-2 * PA vs. MiaPaca-2 * control), DNAJA4 (probeset 11718618_a_at): 2.01
- Mean (MiaPaca-2 * PA), DNAJA4 (probeset 11718618_a_at): 6.51
- Fold-Change (MiaPaca-2 * PA vs. MiaPaca-2 * control), IL8 (probeset 11718841_s_at): 2.40
- Mean (MiaPaca-2 * PA), IL8 (probeset 11718841_s_at): 12.69
- Fold-Change (MiaPaca-2 * PA vs. MiaPaca-2 * control), TNFAIP3 (probeset 11718939_s_at): 2.11
- Mean (MiaPaca-2 * PA), TNFAIP3 (probeset 11718939_s_at): 7.50
- Fold-Change (MiaPaca-2 * PA vs. MiaPaca-2 * control), TNFAIP3 (probeset 11718940_a_at): 2.00
- Mean (MiaPaca-2 * PA), TNFAIP3 (probeset 11718940_a_at): 6.10
- Fold-Change (MiaPaca-2 * PA vs. MiaPaca-2 * control), ATF3 (probeset 11719344_a_at): 3.30
- Mean (MiaPaca-2 * PA), ATF3 (probeset 11719344_a_at): 7.56
- Fold-Change (MiaPaca-2 * PA vs. MiaPaca-2 * control), CXCL1 (probeset 11719366_s_at): 2.03
- Mean (MiaPaca-2 * PA), CXCL1 (probeset 11719366_s_at): 12.27
- Fold-Change (MiaPaca-2 * PA vs. MiaPaca-2 * control), TRIB3 (probeset 11719811_a_at): 1.77
- Mean (MiaPaca-2 * PA), TRIB3 (probeset 11719811_a_at): 9.38
- Fold-Change (MiaPaca-2 * PA vs. MiaPaca-2 * control), HBEGF (probeset 11719898_s_at): 2.54
- Mean (MiaPaca-2 * PA), HBEGF (probeset 11719898_s_at): 8.25
- Fold-Change (MiaPaca-2 * PA vs. MiaPaca-2 * control), IL1B (probeset 11719916_at): 1.90
- Mean (MiaPaca-2 * PA), IL1B (probeset 11719916_at): 7.92
- Fold-Change (MiaPaca-2 * PA vs. MiaPaca-2 * control), IER3 (probeset 11720062_s_at): 2.10
- Mean (MiaPaca-2 * PA), IER3 (probeset 11720062_s_at): 10.23
- Fold-Change (MiaPaca-2 * PA vs. MiaPaca-2 * control), RELB (probeset 11722141_at): 1.71
- Mean (MiaPaca-2 * PA), RELB (probeset 11722141_at): 7.47
- Fold-Change (MiaPaca-2 * PA vs. MiaPaca-2 * control), B3GNT5 (probeset 11722705_at): 1.83
- Mean (MiaPaca-2 * PA), B3GNT5 (probeset 11722705_at): 6.95
- Fold-Change (MiaPaca-2 * PA vs. MiaPaca-2 * control), BIRC3 (probeset 11722850_a_at): 1.69
- Mean (MiaPaca-2 * PA), BIRC3 (probeset 11722850_a_at): 8.98
- Fold-Change (MiaPaca-2 * PA vs. MiaPaca-2 * control), BIRC3 (probeset 11722851_at): 1.77
- Mean (MiaPaca-2 * PA), BIRC3 (probeset 11722851_at): 7.17
- Fold-Change (MiaPaca-2 * PA vs. MiaPaca-2 * control), CDCP1 (probeset 11722867_at): 1.68
- Mean (MiaPaca-2 * PA), CDCP1 (probeset 11722867_at): 8.84
- Fold-Change (MiaPaca-2 * PA vs. MiaPaca-2 * control), HSPA6 (probeset 11723050_a_at): 9.74
- Mean (MiaPaca-2 * PA), HSPA6 (probeset 11723050_a_at): 8.06
- Fold-Change (MiaPaca-2 * PA vs. MiaPaca-2 * control), ZFAND2A (probeset 11723753_a_at): 2.17
- Mean (MiaPaca-2 * PA), ZFAND2A (probeset 11723753_a_at): 9.04
- Fold-Change (MiaPaca-2 * PA vs. MiaPaca-2 * control), FOSL1 (probeset 11724478_s_at): 1.74
- Mean (MiaPaca-2 * PA), FOSL1 (probeset 11724478_s_at): 8.17
- Fold-Change (MiaPaca-2 * PA vs. MiaPaca-2 * control), GBP1 (probeset 11726329_x_at): 1.76
- Mean (MiaPaca-2 * PA), GBP1 (probeset 11726329_x_at): 5.88
- Fold-Change (MiaPaca-2 * PA vs. MiaPaca-2 * control), SERPINB8 (probeset 11728413_at): 1.95
- Mean (MiaPaca-2 * PA), SERPINB8 (probeset 11728413_at): 8.88
- Fold-Change (MiaPaca-2 * PA vs. MiaPaca-2 * control), CXCL3 (probeset 11728476_a_at): 2.47
- Mean (MiaPaca-2 * PA), CXCL3 (probeset 11728476_a_at): 8.40
- Fold-Change (MiaPaca-2 * PA vs. MiaPaca-2 * control), CXCL3 (probeset 11728477_at): 2.55
- Mean (MiaPaca-2 * PA), CXCL3 (probeset 11728477_at): 8.95
- Fold-Change (MiaPaca-2 * PA vs. MiaPaca-2 * control), HSPA1A /// HSPA1B (probeset 11729119_a_at): 1.71
- Mean (MiaPaca-2 * PA), HSPA1A /// HSPA1B (probeset 11729119_a_at): 11.39
